*1 amine or outer side, *2 acyl side, *3 side chain or, on linkers, in order; H or OH if unused. Where a SMILES comes first, the peptide text is derived from it. Side-chain parts run from the residue outwards. [ ]: non-standard residue; d: D form. The star is where a group is joined. C20 diacid = O=C(O)CCCCCCCCCCCCCCCCCCC(=O)*; αMePhe(2-F) = C[C@](N)(Cc1ccccc1F)C(=O)O; γGlu = O=C(O)[C@H](CCC(=O)[*:2])N[*:1]; 4Pal = N[C@@H](Cc1ccncc1)C(=O)O; αMeL = CC(C)C[C@](C)(N)C(=O)O; Orn = NCCC[C@H](N)C(=O)O; AEEA = NCCOCCOCC(=O)O; Aib = CC(C)(N)C(=O)O
Key:
human GIPR = target: T1, human GIPR (Homo sapiens, UniProt P48546); assay: [125I]-GIP binding, SPA with WGA beads, 0.1% bacitracin; settings: geometric mean, read-out: hGIPR Ki
T1 construct: expressed in transfected cells; crude membranes
T1 sequence (P48546 22-466): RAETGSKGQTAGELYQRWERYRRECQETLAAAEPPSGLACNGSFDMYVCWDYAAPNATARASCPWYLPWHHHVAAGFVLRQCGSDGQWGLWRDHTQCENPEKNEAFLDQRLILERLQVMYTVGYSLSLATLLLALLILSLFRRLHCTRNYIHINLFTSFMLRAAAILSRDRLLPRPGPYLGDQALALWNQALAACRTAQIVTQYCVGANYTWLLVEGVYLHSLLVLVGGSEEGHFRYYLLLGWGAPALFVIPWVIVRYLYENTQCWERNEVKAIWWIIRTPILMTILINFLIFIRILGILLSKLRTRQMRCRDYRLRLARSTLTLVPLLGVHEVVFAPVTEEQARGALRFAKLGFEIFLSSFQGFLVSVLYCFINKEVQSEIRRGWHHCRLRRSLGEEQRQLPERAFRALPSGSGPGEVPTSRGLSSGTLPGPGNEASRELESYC
Procedure, shortened: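 Ki values are geometric means (SEM, n independent days), derived from four-parameter nonlinear regression of IC50. Membranes came from hGIPR-expressing CHO cells.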

[1] = target: T2, human GLP-1 receptor (GLP-1R) (Homo sapiens, UniProt P43220); assay: cAMP functional assay (HTRF) in HEK293 cells in presence of 0.1% casein; format: cell-based; settings: HEK293 cells expressing human GLP-1R, geometric mean, read-out: hGLP1R cAMP Rel EC50 nM (SEM, n)
T2 construct: expressed in transfected cells; host or cells: HEK293
T2 sequence (P43220 24-463): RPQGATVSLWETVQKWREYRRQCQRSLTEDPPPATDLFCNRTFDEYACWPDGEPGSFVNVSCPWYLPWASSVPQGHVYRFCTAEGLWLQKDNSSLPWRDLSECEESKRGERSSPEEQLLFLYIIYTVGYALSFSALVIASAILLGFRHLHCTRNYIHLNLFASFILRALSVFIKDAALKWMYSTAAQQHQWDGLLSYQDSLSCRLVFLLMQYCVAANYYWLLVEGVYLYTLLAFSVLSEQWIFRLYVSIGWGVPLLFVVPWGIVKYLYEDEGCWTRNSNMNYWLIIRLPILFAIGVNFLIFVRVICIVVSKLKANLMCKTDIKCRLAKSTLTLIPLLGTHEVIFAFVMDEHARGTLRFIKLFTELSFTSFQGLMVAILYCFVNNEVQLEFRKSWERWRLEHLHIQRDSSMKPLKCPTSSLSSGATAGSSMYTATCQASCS

SMILES | Ki (human GIPR) [nM] | EC50 [1] [nM]
CC[C@H](C)[C@H](NC(=O)[C@H](CO)NC(=O)[C@H](Cc1ccc(O)cc1)NC(=O)[C@H](CC(=O)O)NC(=O)[C@H](CO)NC(=O)[C@@H](NC(=O)[C@](C)(Cc1ccccc1F)NC(=O)[C@@H](NC(=O)CNC(=O)[C@H](CCC(=O)O)NC(=O)C(C)(C)NC(=O)[C@@H](N)Cc1ccc(O)cc1)[C@@H](C)O)[C@@H](C)CC)C(=O)N[C@@H](CC(C)C)C(=O)N[C@@H](CC(C)C)C(=O)N[C@@H](CC(=O)O)C(=O)N[C@@H](CCCCN)C(=O)N[C@H](C(=O)N[C@@H](Cc1c[nH]cn1)C(=O)N[C@@H](CCC(N)=O)C(=O)NC(C)(C)C(=O)N[C@@H](CC(=O)O)C(=O)N[C@@H](Cc1ccccc1)C(=O)N[C@H](C(=O)N[C@@H](CCC(=O)O)C(=O)N[C@@H](Cc1ccncc1)C(=O)N[C@@H](CCCCNC(=O)COCCOCCNC(=O)COCCOCCNC(=O)CC[C@H](NC(=O)CCCCCCCCCCCCCCCCCCC(=O)O)C(=O)O)C(=O)N[C@@H](CC(C)C)C(=O)N[C@@H](CCC(=O)O)C(=O)NCC(=O)NCC(=O)N1CCC[C@H]1C(=O)N[C@@H](CO)C(=O)N[C@@H](CO)C(=O)NCC(=O)N[C@@H](C)C(=O)N1CCC[C@H]1C(=O)N1CCC[C@H]1C(=O)N1CCC[C@H]1C(=O)N[C@@H](CO)C(N)=O)C(C)C)[C@@H](C)CC [Example 119] (H-Y[Aib]EGT[αMePhe(2-F)]ISDYSILLDKIHQ[Aib]DFVE[4Pal]K([AEEA-AEEA-γGlu-C20 diacid])LEGGPSSGAPPPS-NH2) | 0.129 | > 5000
CC[C@H](C)[C@H](NC(=O)[C@H](CO)NC(=O)[C@H](Cc1ccc(O)cc1)NC(=O)[C@H](CC(=O)O)NC(=O)[C@H](CO)NC(=O)[C@@H](NC(=O)[C@](C)(Cc1ccccc1F)NC(=O)[C@@H](NC(=O)CNC(=O)[C@H](CCC(=O)O)NC(=O)C(C)(C)NC(=O)[C@@H](N)Cc1ccc(O)cc1)[C@@H](C)O)[C@@H](C)CC)C(=O)N[C@@H](CC(C)C)C(=O)N[C@@H](CC(C)C)C(=O)N[C@@H](CC(=O)O)C(=O)N[C@@H](CCCCN)C(=O)N[C@H](C(=O)N[C@@H](Cc1c[nH]cn1)C(=O)N[C@@H](CCC(N)=O)C(=O)NC(C)(C)C(=O)N[C@@H](CC(=O)O)C(=O)N[C@@H](Cc1ccccc1)C(=O)N[C@H](C(=O)N[C@@H](CCC(=O)O)C(=O)N[C@@H](Cc1ccncc1)C(=O)N[C@@H](CCCCNC(=O)COCCOCCNC(=O)COCCOCCNC(=O)CC[C@H](NC(=O)CCCCCCCCCCCCCCCCCCC(=O)O)C(=O)O)C(=O)N[C@@H](CC(C)C)C(=O)N[C@@H](CCC(=O)O)C(=O)N[C@@H](C)C(=O)NCC(=O)N1CCC[C@H]1C(=O)N[C@@H](CO)C(=O)N[C@@H](CO)C(=O)NCC(=O)N[C@@H](C)C(=O)N1CCC[C@H]1C(=O)N1CCC[C@H]1C(=O)N1CCC[C@H]1C(=O)N[C@@H](CO)C(N)=O)C(C)C)[C@@H](C)CC [Example 120] (H-Y[Aib]EGT[αMePhe(2-F)]ISDYSILLDKIHQ[Aib]DFVE[4Pal]K([AEEA-AEEA-γGlu-C20 diacid])LEAGPSSGAPPPS-NH2) | 0.171 | > 5000
CC[C@H](C)[C@H](NC(=O)[C@H](CO)NC(=O)[C@H](Cc1ccc(O)cc1)NC(=O)[C@H](CC(=O)O)NC(=O)[C@H](CO)NC(=O)[C@@H](NC(=O)[C@](C)(Cc1ccccc1F)NC(=O)[C@@H](NC(=O)CNC(=O)[C@H](CCC(=O)O)NC(=O)C(C)(C)NC(=O)[C@@H](N)Cc1ccc(O)cc1)[C@@H](C)O)[C@@H](C)CC)C(=O)N[C@@H](CC(C)C)C(=O)N[C@@H](CC(C)C)C(=O)N[C@@H](CC(=O)O)C(=O)N[C@@H](CCCCN)C(=O)N[C@H](C(=O)N[C@@H](Cc1c[nH]cn1)C(=O)N[C@@H](CCC(N)=O)C(=O)NC(C)(C)C(=O)N[C@@H](CC(=O)O)C(=O)N[C@@H](Cc1ccccc1)C(=O)N[C@H](C(=O)N[C@@H](CCC(=O)O)C(=O)N[C@@H](Cc1ccncc1)C(=O)N[C@@H](CCCCNC(=O)COCCOCCNC(=O)COCCOCCNC(=O)CC[C@H](NC(=O)CCCCCCCCCCCCCCCCCCC(=O)O)C(=O)O)C(=O)N[C@@H](CC(C)C)C(=O)N[C@@H](CCC(=O)O)C(=O)N[C@@H](CCC(N)=O)C(=O)NCC(=O)N1CCC[C@H]1C(=O)N[C@@H](CO)C(=O)N[C@@H](CO)C(=O)NCC(=O)N[C@@H](C)C(=O)N1CCC[C@H]1C(=O)N1CCC[C@H]1C(=O)N1CCC[C@H]1C(=O)N[C@@H](CO)C(N)=O)C(C)C)[C@@H](C)CC [Example 121] (H-Y[Aib]EGT[αMePhe(2-F)]ISDYSILLDKIHQ[Aib]DFVE[4Pal]K([AEEA-AEEA-γGlu-C20 diacid])LEQGPSSGAPPPS-NH2) | 0.103 | > 5000
CC[C@H](C)[C@H](NC(=O)[C@H](CCCN)NC(=O)[C@H](CC(=O)O)NC(=O)[C@H](CC(C)C)NC(=O)[C@](C)(CC(C)C)NC(=O)[C@@H](NC(=O)[C@H](CO)NC(=O)[C@H](Cc1ccc(O)cc1)NC(=O)[C@H](CC(=O)O)NC(=O)[C@H](CO)NC(=O)[C@@H](NC(=O)[C@H](Cc1ccccc1)NC(=O)[C@@H](NC(=O)CNC(=O)[C@H](CCC(=O)O)NC(=O)C(C)(C)NC(=O)[C@@H](N)Cc1ccc(O)cc1)[C@@H](C)O)[C@@H](C)CC)[C@@H](C)CC)C(=O)N[C@@H](Cc1c[nH]cn1)C(=O)N[C@@H](CCC(N)=O)C(=O)NC(C)(C)C(=O)N[C@@H](CCC(=O)O)C(=O)N[C@@H](Cc1ccccc1)C(=O)N[C@H](C(=O)N[C@@H](CCC(=O)O)C(=O)N[C@@H](Cc1ccncc1)C(=O)N[C@@H](CCCCNC(=O)COCCOCCNC(=O)COCCOCCNC(=O)CC[C@H](NC(=O)CCCCCCCCCCCCCCCCCCC(=O)O)C(=O)O)C(=O)N[C@@H](CC(C)C)C(=O)N[C@@H](CCC(=O)O)C(=O)N[C@@H](C)C(=O)NCC(=O)N1CCC[C@H]1C(=O)N[C@@H](CO)C(=O)N[C@@H](CO)C(=O)NCC(=O)N[C@@H](C)C(=O)N1CCC[C@H]1C(=O)N1CCC[C@H]1C(=O)N1CCC[C@H]1C(=O)N[C@@H](CO)C(N)=O)C(C)C [Example 122] (H-Y[Aib]EGTFISDYSI[αMeL]LD[Orn]IHQ[Aib]EFVE[4Pal]K([AEEA-AEEA-γGlu-C20 diacid])LEAGPSSGAPPPS-NH2) | 0.0311 | > 5000
